Molecular target: T1, human CB1 receptor (Homo sapiens, UniProt P21554)
T1 construct: host or cells: CHO-RD-HGA16 cells (CHO cells overexpressing promiscuous Galpha16)
Test: CB1 calcium mobilization assay (antagonist mode, against EC80 of CP55,940)
Format: cell-based
Details: not given

T1 sequence (P21554 whole entry): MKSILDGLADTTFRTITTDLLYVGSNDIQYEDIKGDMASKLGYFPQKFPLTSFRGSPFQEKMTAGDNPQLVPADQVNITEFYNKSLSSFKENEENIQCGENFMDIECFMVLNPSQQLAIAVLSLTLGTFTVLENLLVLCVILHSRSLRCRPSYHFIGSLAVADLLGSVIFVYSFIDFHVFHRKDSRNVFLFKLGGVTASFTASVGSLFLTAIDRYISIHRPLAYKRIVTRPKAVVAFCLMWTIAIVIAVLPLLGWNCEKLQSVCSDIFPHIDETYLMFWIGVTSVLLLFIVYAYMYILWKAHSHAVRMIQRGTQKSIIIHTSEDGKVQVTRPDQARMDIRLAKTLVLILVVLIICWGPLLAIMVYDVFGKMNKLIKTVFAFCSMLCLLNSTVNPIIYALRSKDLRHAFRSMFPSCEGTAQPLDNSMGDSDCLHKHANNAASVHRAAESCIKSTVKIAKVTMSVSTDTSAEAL

Compound	IC50 [nM]
O=C(Nc1ccc(Cl)cc1)Nc1cccc(N2C3CCC2CC3)c1 [Compound 82, 3-(4-Chlorophenyl)-1-{3-[(1S,4S)-7-azabicyclo[2.2.1]heptan-7-yl]phenyl}urea]	2700

Same assay, conditions: Table 1; against EC80 (100 nM) of CP55,940; mean ± S.E.M.; read-out: CB1 calcium assay IC50

Compound	IC50 [nM]
COc1cccc(-c2cccc(NC(=O)Nc3ccc(Cl)cc3)c2)n1 [Compound 15, 3-(4-Chlorophenyl)-1-[3-(6-methoxypyridin-2-yl)phenyl]urea]	231 ± 14
COc1cc(-c2cccc(NC(=O)Nc3ccc(Cl)cc3)c2)ccn1 [Compound 17, 3-(4-Chlorophenyl)-1-[3-(2-methoxypyridin-4-yl)phenyl]urea]	133 ± 6
O=C(Nc1ccc(Cl)cc1)Nc1cccc(-c2ccccn2)c1 [Compound 18, 3-(4-Chlorophenyl)-1-[3-(pyridin-2-yl)phenyl]urea]	47 ± 13
O=C(Nc1ccc(Cl)cc1)Nc1cccc(-c2cccnc2)c1 [Compound 19, 3-(4-Chlorophenyl)-1-[3-(pyridin-3-yl)phenyl]urea]	244 ± 45
O=C(Nc1ccc(Cl)cc1)Nc1cccc(-c2cncnc2)c1 [Compound 21, 3-(4-Chlorophenyl)-1-[3-(pyrimidin-5-yl)phenyl]urea]	290 ± 24
O=C(Nc1ccc(Cl)cc1)Nc1cccc(-c2ccccc2)c1 [Compound 22, 3-(4-Chlorophenyl)-1-(3-phenylphenyl)urea]	32 ± 7
COc1cccc(-c2cccc(NC(=O)Nc3ccc(Cl)cc3)c2)c1 [Compound 23, 3-(4-Chlorophenyl)-1-[3-(3-methoxyphenyl)phenyl]urea]	81 ± 10
O=C(Nc1ccc(Cl)cc1)Nc1cccc(-c2cccc(O)c2)c1 [Compound 24, 3-(4-Chlorophenyl)-1-[3-(3-hydroxyphenyl)phenyl]urea]	840 ± 130
O=C(Nc1ccc(Cl)cc1)Nc1cccc(-c2ccc3c(c2)OCO3)c1 [Compound 26, 1-[3-(2H-1,3-Benzodioxol-5-yl)phenyl]-3-(4-chlorophenyl)urea]	70 ± 14
Cc1ccccc1-c1cccc(NC(=O)Nc2ccc(Cl)cc2)c1 [Compound 28, 3-(4-Chlorophenyl)-1-[3-(2-methylphenyl)phenyl]urea]	190 ± 45
O=C(Nc1ccc(Cl)cc1)Nc1cccc(-c2cccc([N+](=O)[O-])c2)c1 [Compound 29, 3-(4-Chlorophenyl)-1-[3-(3-nitrophenyl)phenyl]urea]	27 ± 2
O=C(Nc1ccc(Cl)cc1)Nc1cccc(-c2ccc(Cl)cc2)c1 [Compound 30, 3-(4-Chlorophenyl)-1-[3-(4-chlorophenyl)phenyl]urea]	95 ± 9
O=C(Nc1ccc(Cl)cc1)Nc1cccc(-c2c(Cl)cccc2Cl)c1 [Compound 33, 3-(4-Chlorophenyl)-1-[3-(2,6-dichlorophenyl)phenyl]urea]	338 ± 19
O=C(Nc1ccc(Cl)cc1)Nc1cccc(-c2ccc(F)cc2F)c1 [Compound 35, 3-(4-Chlorophenyl)-1-[3-(2,4-difluorophenyl)phenyl]urea]	18 ± 1
CC(C)(C)c1ccc(-c2cccc(NC(=O)Nc3ccc(Cl)cc3)c2)cc1 [Compound 36, 3-(4-Chlorophenyl)-1-[3-(4-tert-butylphenyl)phenyl]urea]	591 ± 48
CC(C)(C)c1cc(-c2cccc(NC(=O)Nc3ccc(Cl)cc3)c2)cc(C(C)(C)C)c1 [Compound 37, 3-(4-Chlorophenyl)-1-[3-(3,5-di-tert-butylphenyl)phenyl]urea]	460 ± 39
O=C(Nc1ccc(Cl)cc1)Nc1cccc(-c2ccc(-c3ccccc3)cc2)c1 [Compound 39, 3-(4-Chlorophenyl)-1-[3-(4-phenylphenyl)phenyl]urea]	1340 ± 370
O=C(Nc1ccc(Cl)cc1)Nc1cccc(-c2ccc3c(c2)Cc2ccccc2-3)c1 [Compound 45, 3-(4-Chlorophenyl)-1-[3-(9H-fluoren-2-yl)phenyl]urea]	1260 ± 160

Molecular target: T2, CB1 receptor (Mus musculus, UniProt P47746)
T2 construct: from tissue; host or cells: cerebellar membranes of adult male CD-1 mice
Test: [35S]GTP-γ-S binding assay in mouse cerebellar membranes, CP55,940-stimulated
Format: biochemical
Details: CP55,940 (100 nM) stimulation, mean (95% confidence interval)
Procedure: Cerebella from adult male CD-1 mice were dissected on ice, snap frozen, and stored at −80° C. until the day of the experiment. Cerebella were homogenized by polytron in membrane buffer (50 mM Tris, 3 mM MgCl2, 0.2 mM EGTA, 100 mM NaCl, pH 7.4) on ice, centrifuged for 10 min at 40,000×g at 4° C. The supernatant was discarded and the pellet was suspended in membrane buffer, homogenized, and centrifuged again for 10 min at 40,000×g. The pellet was resuspended in membrane buffer and protein quantified by Bradford method.
CB1 receptor agonist CP55,940 was employed as the agonist probe.

T2 sequence (P47746 whole entry): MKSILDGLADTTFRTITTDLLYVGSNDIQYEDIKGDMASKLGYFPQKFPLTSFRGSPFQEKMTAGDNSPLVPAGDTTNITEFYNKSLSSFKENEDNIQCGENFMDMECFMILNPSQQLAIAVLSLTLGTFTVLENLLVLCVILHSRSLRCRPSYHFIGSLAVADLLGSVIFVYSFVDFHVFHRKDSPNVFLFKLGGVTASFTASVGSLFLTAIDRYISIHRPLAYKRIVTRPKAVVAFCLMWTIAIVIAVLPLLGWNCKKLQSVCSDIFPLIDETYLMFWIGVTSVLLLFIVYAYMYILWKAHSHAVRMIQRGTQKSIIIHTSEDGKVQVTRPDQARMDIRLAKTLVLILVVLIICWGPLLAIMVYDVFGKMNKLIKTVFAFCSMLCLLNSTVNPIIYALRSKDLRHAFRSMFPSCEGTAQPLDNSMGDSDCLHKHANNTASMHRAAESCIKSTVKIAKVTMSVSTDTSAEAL

Compound	IC50 [nM]
COc1cc(-c2cccc(NC(=O)Nc3ccc(Cl)cc3)c2)ccn1 [Compound 17, 3-(4-Chlorophenyl)-1-[3-(2-methoxypyridin-4-yl)phenyl]urea]	1320
O=C(Nc1ccc(Cl)cc1)Nc1cccc(-c2ccccn2)c1 [Compound 18, 3-(4-Chlorophenyl)-1-[3-(pyridin-2-yl)phenyl]urea]	2650
O=C(Nc1ccc(Cl)cc1)Nc1cccc(-c2ccccc2)c1 [Compound 22, 3-(4-Chlorophenyl)-1-(3-phenylphenyl)urea]	437
COc1cccc(-c2cccc(NC(=O)Nc3ccc(Cl)cc3)c2)c1 [Compound 23, 3-(4-Chlorophenyl)-1-[3-(3-methoxyphenyl)phenyl]urea]	827
O=C(Nc1ccc(Cl)cc1)Nc1cccc(-c2ccc3c(c2)OCO3)c1 [Compound 26, 1-[3-(2H-1,3-Benzodioxol-5-yl)phenyl]-3-(4-chlorophenyl)urea]	619
O=C(Nc1ccc(Cl)cc1)Nc1cccc(-c2cccc([N+](=O)[O-])c2)c1 [Compound 29, 3-(4-Chlorophenyl)-1-[3-(3-nitrophenyl)phenyl]urea]	452
O=C(Nc1ccc(Cl)cc1)Nc1cccc(-c2ccc(F)cc2F)c1 [Compound 35, 3-(4-Chlorophenyl)-1-[3-(2,4-difluorophenyl)phenyl]urea]	353

Molecular target: T1, human CB1 receptor
Test: CB1 calcium mobilization assay, agonist screen
Format: cell-based
Details: Table 1; 10,000 nM final concentration; mean ± SD
Procedure: CHO-RD-HGA16 cells (Molecular Devices, CA) stably expressing the human CB1 receptor were plated into 96-well black-walled assay plates at 25,000 cells/well in 100 μL of Ham's F12 (supplemented with 10% fetal bovine serum, 100 units of penicillin/streptomycin, and 100 μg/mL Normocin) and incubated overnight at 37° C., 5% CO2. Calcium 5 dye (Molecular Devices, CA) was reconstituted according to the manufacturer's instructions. The reconstituted dye was diluted 1:40 in prewarmed (37° C.) assay buffer (1×HBSS, 20 mM HEPES, 2.5 mM probenecid, pH 7.4 at 37° C.). Growth medium was removed, and the cells were gently washed with 100 μL of prewarmed (37° C.) assay buffer. The cells were incubated for 45 min at 37° C., 5% CO2 in 200 μL of the diluted Calcium 5 dye solution. […] Serial dilutions of the test compounds were prepared at 10× the desired final concentration in 2.25% BSA/4.5% DMSO/4.5% EtOH/assay buffer. After the dye loading incubation period, the cells were pretreated with 25 μL of the test compound serial dilutions and incubated for 15 min at 37° C. After the pretreatment incubation period, the plate was read with a FLIPR Tetra (Molecular Devices, CA). Calcium-mediated changes in fluorescence were monitored every 1 s over a 90 s time period, with the Tetra adding 25 μL of the CP55,940 EC80 concentration at the 10s time point (excitation/emission: 485/525 nm). Relative fluorescence units (RFU) were plotted against the log of compound concentrations. Data were fit to a three-parameter logistic curve to generate IC50 values (GraphPad Prism 6.0, CA). […] For agonist screens, the above procedure was followed except that cells were pretreated with 2.25% BSA/4.5% DMSO/4.5% EtOH/assay buffer and the Tetra added single concentration dilutions of the test compounds prepared at 10× the desired final concentration in 0.25% BSA/0.5% DMSO/0.5% EtOH/assay buffer. Test compound RFUs were compared to the CP55,940 Emax RFUs to generate % Emax values.

Compound	CB1 calcium assay Agonist screen (% CP55, 940 Emax)
COc1cccc(-c2cccc(NC(=O)Nc3ccc(Cl)cc3)c2)n1 [Compound 15, 3-(4-Chlorophenyl)-1-[3-(6-methoxypyridin-2-yl)phenyl]urea]	2.4 ± 0.2 % CP55, 940 Emax
COc1cc(-c2cccc(NC(=O)Nc3ccc(Cl)cc3)c2)ccn1 [Compound 17, 3-(4-Chlorophenyl)-1-[3-(2-methoxypyridin-4-yl)phenyl]urea]	23.4 ± 1.9 % CP55, 940 Emax
O=C(Nc1ccc(Cl)cc1)Nc1cccc(-c2ccccn2)c1 [Compound 18, 3-(4-Chlorophenyl)-1-[3-(pyridin-2-yl)phenyl]urea]	8.8 ± 3.1 % CP55, 940 Emax
O=C(Nc1ccc(Cl)cc1)Nc1cccc(-c2cccnc2)c1 [Compound 19, 3-(4-Chlorophenyl)-1-[3-(pyridin-3-yl)phenyl]urea]	34.2 ± 9.3 % CP55, 940 Emax
O=C(Nc1ccc(Cl)cc1)Nc1cccc(-c2cncnc2)c1 [Compound 21, 3-(4-Chlorophenyl)-1-[3-(pyrimidin-5-yl)phenyl]urea]	2.5 ± 6.2 % CP55, 940 Emax
O=C(Nc1ccc(Cl)cc1)Nc1cccc(-c2ccccc2)c1 [Compound 22, 3-(4-Chlorophenyl)-1-(3-phenylphenyl)urea]	5.1 ± 0.8 % CP55, 940 Emax
COc1cccc(-c2cccc(NC(=O)Nc3ccc(Cl)cc3)c2)c1 [Compound 23, 3-(4-Chlorophenyl)-1-[3-(3-methoxyphenyl)phenyl]urea]	12.5 ± 1.9 % CP55, 940 Emax
O=C(Nc1ccc(Cl)cc1)Nc1cccc(-c2cccc(O)c2)c1 [Compound 24, 3-(4-Chlorophenyl)-1-[3-(3-hydroxyphenyl)phenyl]urea]	9.8 ± 1.6 % CP55, 940 Emax
O=C(Nc1ccc(Cl)cc1)Nc1cccc(-c2ccc3c(c2)OCO3)c1 [Compound 26, 1-[3-(2H-1,3-Benzodioxol-5-yl)phenyl]-3-(4-chlorophenyl)urea]	9.8 ± 3.5 % CP55, 940 Emax
Cc1ccccc1-c1cccc(NC(=O)Nc2ccc(Cl)cc2)c1 [Compound 28, 3-(4-Chlorophenyl)-1-[3-(2-methylphenyl)phenyl]urea]	4.4 ± 2.7 % CP55, 940 Emax
O=C(Nc1ccc(Cl)cc1)Nc1cccc(-c2ccc(Cl)cc2)c1 [Compound 30, 3-(4-Chlorophenyl)-1-[3-(4-chlorophenyl)phenyl]urea]	21.3 ± 3.7 % CP55, 940 Emax
O=C(Nc1ccc(Cl)cc1)Nc1cccc(-c2c(Cl)cccc2Cl)c1 [Compound 33, 3-(4-Chlorophenyl)-1-[3-(2,6-dichlorophenyl)phenyl]urea]	17.2 ± 3.1 % CP55, 940 Emax
CC(C)(C)c1ccc(-c2cccc(NC(=O)Nc3ccc(Cl)cc3)c2)cc1 [Compound 36, 3-(4-Chlorophenyl)-1-[3-(4-tert-butylphenyl)phenyl]urea]	4.0 ± 1.0 % CP55, 940 Emax
CC(C)(C)c1cc(-c2cccc(NC(=O)Nc3ccc(Cl)cc3)c2)cc(C(C)(C)C)c1 [Compound 37, 3-(4-Chlorophenyl)-1-[3-(3,5-di-tert-butylphenyl)phenyl]urea]	10.4 ± 2.1 % CP55, 940 Emax
O=C(Nc1ccc(Cl)cc1)Nc1cccc(-c2ccc(-c3ccccc3)cc2)c1 [Compound 39, 3-(4-Chlorophenyl)-1-[3-(4-phenylphenyl)phenyl]urea]	−0.7 ± 2.4 % CP55, 940 Emax
O=C(Nc1ccc(Cl)cc1)Nc1cccc(-c2ccc3c(c2)Cc2ccccc2-3)c1 [Compound 45, 3-(4-Chlorophenyl)-1-[3-(9H-fluoren-2-yl)phenyl]urea]	−0.1 ± 0.1 % CP55, 940 Emax
O=C(Nc1ccc(Cl)cc1)Nc1cccc(N2C3CCC2CC3)c1 [Compound 82, 3-(4-Chlorophenyl)-1-{3-[(1S,4S)-7-azabicyclo[2.2.1]heptan-7-yl]phenyl}urea]	5.5 ± 1.3 % CP55, 940 Emax

Reference: patent publication US11084781B2, “Diarylureas as CB1 allosteric modulators” (Research Triangle Institute, priority 2017, dated 2021)
